{"source": "patent US9187523B2", "about": "(priority 2006, dated 2015)", "test_system": "Yersinia pestis cells lacking plague plasminogen activator gene", "type": "cell-based", "note": "Where a SMILES comes first, the peptide text is derived from it. The star is where a group is joined. Dabcyl = CN(C)c1ccc(N=Nc2ccc(C(=O)*)cc2)cc1; EDANS = O=S(=O)(O)c1cccc2c(NCCN*)cccc12", "data": [{"smiles": "CC[C@H](C)[C@H](NC(=O)[C@H](CCCNC(=N)N)NC(=O)[C@H](CCCNC(=N)N)NC(=O)c1ccc(N=Nc2ccc(N(C)C)cc2)cc1)C(=O)N[C@@H](CC(N)=O)C(=O)N[C@@H](CCCNC(=N)N)C(=O)N[C@@H](CCC(=O)NCCNc1cccc2c(S(=O)(=O)O)cccc12)C(N)=O", "note": "[DABCYL-Arg-Arg-Ile-Asn-Arg-Glu-(EDANS)-NH2] (Dabcyl-RRINRE(EDANS)-NH2)", "values": [{"measurement": "fluorescence with Pla-negative mutant", "result": "low background fluorescence"}]}]}
